Results from US20190038556A1, “FORMULATIONS AND CARRIER SYSTEMS INCLUDING COMPOUND INTERACTIVE DOMAINS” (University of Pittsburgh - Of The Commonwealth System of …, priority 2012, published 2019).
≈ marks a conversion by molar mass, not a printed value. Read-outs that look alike come from different tables or passages of the source.

How the values were obtained:
[1] = Screening of protected amino acid derivatives as solubilizers and inhibitor of crystallization for JP4-039; format: physicochemical
Experimental: In several studies, we compared a group of ε-Boc-lysine derivatives bearing various modifying groups on the α-NH2 position. […] FIG. 1 illustrates structures of various amino acid derivatives studied in solubility studies of JP4-039 in Table 3. […] In Table 3, the followings designations are used: U—Initially soluble but unstable after 5 min; V—forming vesicles; I—insoluble; and S—soluble.
1(b). Screening of protected amino acid derivatives as solubilizers and inhibitor of crystallization for JP4-039. α-acetyl-ε-Boc-lysine, α-iso-butoxycarbamoyl-ε-Boc-lysine were synthesized from α-NH2-ε-Boc-lysine (1 mmole) dissolved in 5 mL of saturated sodium bicarbonate solution by adding a 4-fold excess of acetyl anhydride or isobutyl chloroformate dissolved in 5 mL of THF over a period of 5 minutes, respectively. THF was removed from the reaction mixture, the remaining mixture was diluted with 50 mL of ethyl acetate. The organic phase was washed with 20 mL of saturated NaHCO3, saline, citric acid (0.5 M) and water sequentially. The organic phase was dried over anhydrous sodium sulfate, and the solvent was removed. The solid residues were recrystallized from ethyl acetate/hexanes mixture. These derivatives, together with a panel of commercially available amine protected derivatives of lysine, phenylalanine, and glycine were prepared as 1-100 mM solution or suspension in 0.1 M Na2HPO4 buffer. Meanwhile, 0.447 μg of JP4-039 dissolved in 5 μL of methanol was added to each well of a 96-well polystyrene plate. One hundred μL of amino acid solution/suspension were added to the methanol solution and mixed well. The physical status of the samples in each well was inspected visually for the physical appearance of brown crystals periodically over 2 h. Some samples were photographed under a microscope after 20 min.

[2] = PTX loading and formulation stability of PTX/PEG-Fmoc2 mixed micelles (HPLC); format: physicochemical
Excerpt: DLC (%)=[weight of drug used/(weight of polymer+drug used)]×100%
DLE (%)=(weight of loaded drug/weight of input drug)×100%
2(b)(iv). Preparation and biophysical characterization of PTX/PEG-Fmoc2 mixed micelles. Thin-film hydration method was utilized for preparation of PTX/PEG-Fmoc2 mixed nanomicelles. PEG-Fmoc2 and PTX in chloroform were well mixed in a glass tube at designated molar ratios. A thin film of carrier/drug mixture was generated through removal of the organic solvent by a gentle stream of nitrogen. The trace amount of solvent was further removed via vacuum for 2 h. Then the film was hydrated and suspended in DPBS by vortex to obtain a clear solution of PTX/PEG-Fmoc2 mixed nanomicelles. […]
The size distribution of PTX/PEG-Fmoc2 mixed nanomicelles was examined by dynamic light scattering (DLS) via a Malvern Zeta Nanosizer, and the morphology was observed by transmission electron microscopy (TEM) after negative staining. The CMC measurement was performed as reported before with pyrene as a fluorescence probe. To quantify PTX in the micelles, PTX was extracted by methanol, and detected by Waters Alliance 2695-2998 high-performance liquid chromatography (HPLC) system with a RP-18 column (250 mm×4.6 mm) equipped with a UV detector at 227 nm at room temperature. […] The drug loading capacity (DLC) and efficiency (DLE) were calculated as set forth above.

[3] = physchem
Excerpt: The exact mechanism for the protection of ECGC against oxygen in the form of complex is unknown.

[4] = Particle size measurement by laser dynamic light scattering; format: physicochemical; conditions: for Size +/− SD: agent formulated with multi-chain PEGylated micelle-forming surfactant; for Particle Sizes w/o JP4-039: empty micelles
Experimental: 1(f). Particle size measurement. […] Samples were further diluted ten times in distilled water and sizes were measured by laser dynamic light scattering using a particle sizer (Zetasizer Nano ZS instrument, available from Malvern Instruments Ltd of Worcestershire, United Kingdom). Size measurement of emulsion particles were conducted using a Coulter N4 particle sizer after a 100-fold dilution in saline.

[5] = Critical micelle concentration (Eosin Y red shift); format: physicochemical
Experimental: 1(d). Critical micelle concentration (CMC). CMC was determined based on the red shift of the maximal absorption of Eosin Y when incorporated into more hydrophobic microenvironment in the core of micelle. Eosin Y solution was added to a final concentration of 1 mM to a series of surfactant solution prepared in distilled water and incubated for 30 minute at room temperature. OD542 nm was measured and plotted against surfactant concentration from which CMC values were estimated.

[6] = for Physical form on hydration: 1 mg at 1 mg/ml
Excerpt: Additional representative studies of paclitaxel PTX loaded onto a carrier agent including only a hydrophilic segment, region or domain conjugated to a drug-interactive segment, region or domain are set forth below.

[7] = carrier Methoxy-PEG550-α-Fmoc-lysyl-ε-oleylamide (20 mg/ml)
[8] = aqueous with cosolvent or surfactant or cyclodextrin

| Compound | Solubility status of JP4-039 with amino acid derivative ([1]; molar ratio 5) | Solubility status of JP4-039 with amino acid derivative ([1]; molar ratio 10) | Solubility status of JP4-039 with amino acid derivative ([1]; molar ratio 20) | Solubility status of JP4-039 with amino acid derivative ([1]; molar ratio 30) | Solubility status of JP4-039 with amino acid derivative ([1]; molar ratio 40) | Solubility status of JP4-039 with amino acid derivative ([1]; molar ratio 50) | further results |
| --- | --- | --- | --- | --- | --- | --- | --- |
| CC(=O)NCCCC[C@H](NC(=O)OCc1ccccc1)C(=O)O [CBz-(Ace)-Lys-OH] | I | I | I | I | I | S |  |
| PEG5000-lysyl-(α-Fmoc-ε-oleic acid-lysine)2 [PEG-Fmoc-OA] |  |  |  |  |  |  | Stability in solution at maximum PTX loading [2]: several hours; PTX loading capacity (maximum) ([2]; w/w, stable complexes in aqueous solution): 15% |
| O=C([O-])c1c(Cl)c(Cl)c(Cl)c(Cl)c1-c1c2cc(I)c(=O)c(I)c-2oc2c(I)c([O-])c(I)cc12.[Na+].[Na+] [Rose Bengal] |  |  |  |  |  |  | Drug:carrier mole ratio [3]: 2.5:1 to 2:1^; Soluble at [3]: >5 mg/mL; solubility [3]: freely; Size +/− SD [4]: 101.6 +/− 7 nm |
| Monomethoxy PEG2,000-lysyl-(α-Fmoc-ε-oleoyl lysine)2 [lipopeptide 3] |  |  |  |  |  |  | Particle Sizes w/JP4-039 ([4]; JP4-039 loaded micelles): 94.2 +/− 1.7 nm; Particle Sizes w/o JP4-039 [4]: 106.7 +/− 2.5 nm; CMC [5]: 4.2 µM |
| CC/C(=C(\c1ccccc1)c1ccc(OCCN(C)C)cc1)c1ccccc1 [Tamoxifen] |  |  |  |  |  |  | Stability of suspension upon hydration [6]: ~1 h; Physical form on hydration [6, 7]: micelle solution |
| Monomethoxy PEG5,000-lysyl-[lysyl-(α-Fmoc-ε-oleoyl lysine)2]2 [lipopeptide 4] |  |  |  |  |  |  | Particle Sizes w/o JP4-039 [4]: 132.1 +/− 8.5 nm; CMC [5]: 3.4 µM |
| O=C(O)CCNC(=O)OCc1ccccc1 [Cbz-β-Ala-OH] | I | I | I | I | I | I |  |
| COc1cc(/C=C/C(=O)CC(=O)/C=C/c2ccc(O)c(OC)c2)ccc1O [Curcumin] |  |  |  |  |  |  | Stability of suspension upon hydration [6]: ~1 h; Physical form on hydration [6, 7]: micelle solution; Physical form on hydration ([6]; carrier Methoxy-PEG1000-α-Fmoc-lysyl-ε-(α-Fmoc-ε-Boc lysine), 20 mg/ml): 1 mg at 1 mg/ml, viscous gel; Physical form on hydration ([6]; carrier Methoxy-PEG1000-α-Fmoc-lysyl-ε-(α-Fmoc-ε-Boc lysine), 20 mg/ml, listed as curcumin): suspension |
| C=CC[C@@H]1/C=C(\C)C[C@H](C)C[C@H](OC)[C@H]2O[C@@](O)(C(=O)C(=O)N3CCCC[C@H]3C(=O)O[C@H](/C(C)=C/[C@@H]3CC[C@@H](O)[C@H](OC)C3)[C@H](C)[C@@H](O)CC1=O)[C@H](C)C[C@@H]2OC [FK506, tacrolimus] |  |  |  |  |  |  | Drug:carrier mole ratio [3]: 1:1 to 1:1.5; solubility [3, 8]: 2500 µg/mL (≈ 3110 µM); Size +/− SD [4]: 62.3 +/− 9 nm |
| C=CC1=C(C)c2cc3[nH]c(cc4nc(cc5[nH]c(cc1n2)c(C)c5CCC(=O)O)C(CCC(=O)O)=C4C)c(C)c3C=C [protoporphyrin IX] |  |  |  |  |  |  | Drug:carrier mole ratio [3]: 1:6 to 1:10; solubility [3]: ~1 µg/mL (≈ 1.78 µM); solubility [3, 8]: 500 µg/mL (≈ 889 µM) |
| O=C(N[C@@H](Cc1ccccc1)C(=O)O)c1ccccc1 [Benz-Phe-OH] | I |  |  |  |  | S |  |
| CC(C)c1onc(-c2c(Cl)cccc2Cl)c1COc1ccc(/C=C/c2cccc(C(=O)O)c2)c(Cl)c1 [GW4064] |  |  |  |  |  |  | Drug:carrier mole ratio [3]: 2:1 to 1:1; Soluble at [3]: >5 mg/mL; solubility [3]: 0.002 µg/mL (≈ 0.00368 µM); Size +/− SD [4]: 35.4 +/− 12 nm |
| Isb-(Cbz)-Lys-OH | I | S | S | S | S | S |  |
| CC(=O)N[C@@H](CCCCNC(=O)OCc1ccccc1)C(=O)O [Ace-(Cbz)-Lys-OH] | I | I | I | I | I | S |  |
| COc1ccc2c(c1)c(CC(=O)O)c(C)n2C(=O)c1ccc(Cl)cc1 [Indomethacin] |  |  |  |  |  |  | Physical form on hydration [6, 7]: micelle solution |
| CC(C)(C)OC(=O)NCCCC[C@H](NC(=O)OCC1c2ccccc2-c2ccccc21)C(=O)O [Fmoc-(tBoc)-Lys-OH, α-Fmoc-ε-tBoc-lysine] | S | S | S | S | S | S | Measured diameters of the majority of particles ([4]; prepared in 0.1 M KHCO3): 2-5 nm |
| Monomethoxy PEG2,000-α-Fmoc-ε-Oleoyl Lysine [lipopeptide 1] |  |  |  |  |  |  | CMC [5]: 5.0 µM |

Now from value to compound, other results behind:

| Solubility status of JP4-039 with amino acid derivative ([1]; molar ratio 5) | Solubility status of JP4-039 with amino acid derivative ([1]; molar ratio 10) | Solubility status of JP4-039 with amino acid derivative ([1]; molar ratio 20) | Solubility status of JP4-039 with amino acid derivative ([1]; molar ratio 30) | Solubility status of JP4-039 with amino acid derivative ([1]; molar ratio 40) | Solubility status of JP4-039 with amino acid derivative ([1]; molar ratio 50) | Compound | further results |
| --- | --- | --- | --- | --- | --- | --- | --- |
| I | I | I | I | S | S | CC(C)(C)OC(=O)NCCCC[C@H](NC(=O)OCc1ccccc1)C(=O)O [Cbz-(tBoc)-Lys-OH] |  |
| I | I | S | S | S | S | O=C(NCCCC[C@H](NC(=O)OCc1ccccc1)C(=O)O)OCc1ccccc1 [Di-(Cbz)-Lys-OH] |  |
| I | I | I | I | I | S | CC(C)(C)OC(=O)N[C@@H](CCCCNC(=O)OCc1ccccc1)C(=O)O [tBoc-(Cbz)-Lys-OH] |  |
